In patent US10137210B2, “Thioflavin derivatives for use in antemortem diagnosis of Alzheimer's disease and in vivo imaging and prevention of amyloid deposition” (UNIVERSITY OF PITTSBURGH—OF THE COMMONWEALTH SYSTEM OF …, priority 2000, dated 2018):
“Also recorded” adds a separate entry of the source. Where two headings read alike, the source gives them in different places.

Tests used:
[1] = In vivo brain uptake and retention in mice; parameters: species or system mouse; conditions: for Mouse Brain Uptake @ 2 min / Mouse Brain Uptake @ 30 min: 11C-labeled compound; for 2 min (% ID/g): brain uptake at 2 min; for 2 min (% ID/g) / 30 min (% ID/g): Table 1 lower part; for 30 min (% ID/g): brain uptake at 30 min
Excerpt: In Table 1 below are five different ^11C-labeled BTA derivatives where their in vitro binding properties, log P values, and in vivo brain uptake and retention properties in mice have been determined.

[2] = Partitioning between octanol and phosphate-buffered saline (logP)
Aβ(1-40) fibrils = Aβ(1-40) fibrils (Homo sapiens (Human), UniProt P05067); assay: [N-methyl-11C]BTA-1 binding assay with Aβ(1-40) fibrils
Aβ(1-40) fibrils, sequence (P05067 672-711): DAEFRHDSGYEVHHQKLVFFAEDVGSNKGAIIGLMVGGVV

[3] = tested on: plaques and tangles in post-mortem AD brain; assay: Preliminary tissue staining of post-mortem AD brain with ThT and derivatives; type: binding, human; conditions: for staining of plaques and tangles in AD brain: post-mortem AD brain, fluorescence; for staining detectable at low concentration of staining solution: staining solutions containing only 10 nM of the BTA compound
Excerpt: Thus, in the development of these compounds, tissue staining has served the dual purpose of assessing specificity of staining in AD brain tissue as well as assessing binding affinity by screening staining solutions over a range of concentrations similar to that employed in the binding assays.

[4] = In vivo PET brain imaging in baboons; conditions: normal baboon brain, 5-15 min post injection, 3 mCi i.v.
Experimental: Brain imaging studies were conducted following the intravenous injection of 3-5 mCi of radiotracer. Typical attenuation- and decay-corrected time-activity curves for a frontal cortex region of interest for each of the three compounds are shown in FIG. 6. It is noted that the absolute brain uptake of these 3 compounds in baboons is very similar to that in mice (i.e., about 0.47 to 0.39%ID/g*kg). […] The rank order of maximum brain uptake and clearance rate of the three compounds were also the same in mice and baboons. […] Typical amounts of unmetabolized injectate in plasma for all three compounds were about: 90% at 2 minutes; 35% at 30 minutes; and 20% at 60 minutes.
The emission files collected 5-15 min post injection were summed to provide the images. Brain regions include: Ctx (cortex); Thl (thalamus); Occ (occipital cortex); and Cer (cerebellum).

[5] = tested on: amyloid deposits in postmortem AD brain; assay: Staining of postmortem AD brain tissue sections with unlabeled BTA-1; type: binding, human
[6] = biological target: amyloid deposits in PS1/APP mouse brain (Homo sapiens (Human), UniProt P05067); assay: Staining of transgenic PS1/APP mouse brain sections with unlabeled BTA-1; type: binding
amyloid deposits in PS1/APP mouse brain, sequence (P05067 672-713): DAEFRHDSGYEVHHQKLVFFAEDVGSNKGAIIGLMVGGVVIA
Excerpt: The PS1/APP mouse model combines two human gene mutations known to cause Alzheimer's disease in a doubly transgenic mouse which deposits Aβ fibrils in amyloid plaques in the brain beginning as early as 3 months of age. […] NFT have not been observed in transgenic mouse models of amyloid deposition.

[7] = biological target: Aβ amyloid plaques and cerebrovascular amyloid (Homo sapiens (Human), UniProt P05067); assay: In vivo labeling of amyloid deposits in PS1/APP transgenic mice, multiphoton microscopy; parameters: species or system mouse; conditions: 10 mg/kg ip, imaged 24 hours later, living PS1/APP mice
Aβ amyloid plaques and cerebrovascular amyloid, sequence (P05067 672-713): as above
Excerpt: Twenty-four hours later, multiphoton fluorescence microscopy was employed to obtain high resolution images in the brains of living mice using a cranial window technique.

[8] = tested on: Aβ and tau deposits in brain homogenates; assay: [3H]BTA-1 binding to brain homogenates (AD brain and Braak stage II control brain); parameters: species or system human
Excerpt: This control brain had frequent numbers of NFT in the entorhinal cortex (FIG. 5A), but no neuritic or diffuse plaques in any area of the brain (FIG. 11C). The NFT numbers in the EC of Cntl 04 were similar to the numbers found in many AD cases (FIG. 11B).

synthetic Aβ(1-40) = synthetic Aβ(1-40) (Homo sapiens (Human), UniProt P05067); assay: Competitive binding with [3H]CG and synthetic Aβ(1-40)
synthetic Aβ(1-40), sequence (P05067 672-711): as the sequence (P05067 672-711) above

[9] = Table 1, upper part, read-out: Ki (nM) to Aβ fibrils
[10] = Table 1, lower part, read-out: Ki
[11] = competition for Aβ sites, FIG. 5 right panel, read-out: Ki

In the case of `Cc1ccc2nc(-c3ccc(N[11CH3])cc3)sc2c1`, the “Mouse Brain Uptake @ 2 min” value [1] is reported as 0.32 ± 0.07 % ID/g * kg, the “Mouse Brain Uptake @ 30 min” value [1] is reported as 0.17 ± 0.05 % ID/g * kg and the logP [2] is reported as 3.3.

For `Cc1ccc2nc(-c3ccc(N(C)[11CH3])cc3)sc2c1`, the “Mouse Brain Uptake @ 2 min” value [1] was 0.15 ± 0.06 % ID/g * kg, the “Mouse Brain Uptake @ 30 min” value [1] was 0.16 ± 0.02 % ID/g * kg and the “Ratio of 2 min/30 min Uptake Values” ([1]; mouse brain) was 0.9. It also gave a logP (physchem) of 3.9.

With `COc1ccc2nc(-c3ccc(N[11CH3])cc3)sc2c1` the Ki (Aβ(1-40) fibrils; [9]) was 5.7 nM, the “Mouse Brain Uptake @ 2 min” value [1] was 0.43 ± 0.11 % ID/g * kg and the “Mouse Brain Uptake @ 30 min” value [1] was 0.094 ± 0.038 % ID/g * kg. The “Ratio of 2 min/30 min Uptake Values” ([1]; mouse brain) was 4.6 and the logP (physchem) was 2.7.

In the case of `COc1ccc2nc(-c3ccc(N(C)[11CH3])cc3)sc2c1`, the Ki (Aβ(1-40) fibrils; [9]) is reported as 2.3 nM, the “Mouse Brain Uptake @ 2 min” value [1] is reported as 0.32 ± 0.09 % ID/g * kg and the “Mouse Brain Uptake @ 30 min” value [1] is reported as 0.42 ± 0.10 % ID/g * kg. For the same compound, the “Ratio of 2 min/30 min Uptake Values” ([1]; mouse brain) was 0.8 and the logP (physchem) was 3.3.

In the case of `[11CH3]Nc1ccc(-c2nc3ccccc3s2)cc1`, the “Mouse Brain Uptake @ 2 min” value [1] is reported as 0.44 ± 0.14 % ID/g * kg, the “Mouse Brain Uptake @ 30 min” value [1] is reported as 0.057 ± 0.010 % ID/g * kg and the logP (physchem) is reported as 2.7.

In the case of `Nc1ccc(-c2nc3ccccc3s2)cc1[125I]`, the Ki (Aβ(1-40) fibrils; [10]) is reported as 8.32 nM, the “2:30 min ratio” value ([1]; Table 1, lower part) is reported as 2.7 and the “2 min (% ID/g)” value [1] is reported as 9.08 % ID/g. The “30 min (% ID/g)” value [1] was 3.4 % ID/g and the logP (physchem) was 3.17.

In the case of `Nc1ccc(-c2nc3ccc(O)cc3s2)cc1[125I]`, the Ki (Aβ(1-40) fibrils; [10]) is reported as 11.1 nM, the “2 min (% ID/g)” value [1] is reported as 5.64 % ID/g and the “30 min (% ID/g)” value [1] is reported as 0.36 % ID/g. For the same compound, the logP (physchem) was 1.65.

In the case of `Cc1ccc2nc(-c3ccc(N)cc3)sc2c1` [6-Me-BTA-0, 2-(4′-aminophenyl)-6-methyl-benzothiazole], the “staining of plaques and tangles in AD brain” value (shortened to “staining … in AD brain”) [3] is reported as “stain plaques and tangles” and the “staining detectable at low concentration of staining solution” value [3] is reported as “could still be detected”.

For `CNc1ccc(-c2nc3ccc(C)cc3s2)cc1` [6-Me-BTA-1], the “staining detectable at low concentration of staining solution” value [3] was “could still be detected”.

In the case of `Cc1ccc2nc(-c3ccc(N(C)C)cc3)sc2c1` [6-Me-BTA-2, 2-(4′-dimethylaminophenyl)-6-methyl-benzothiazole], the “staining … in AD brain” value [3] is reported as “stain plaques and tangles”.

In the case of `COc1ccc2nc(-c3ccc(N)cc3)sc2c1` [6-MeO-BTA-0, 6-Methoxy-2-(4-aminophenyl)benzothiazole], the brain clearance ([1]; mouse brain) is reported as “poor brain clearance”.

Work on `Nc1ccc(-c2nc3ccccc3s2)cc1` [BTA-0, 2-(4-Aminophenyl)benzothiazole] yielded a Ki (Aβ(1-40) fibrils; [11]) of 100 ± 16 nM.

For `CNc1ccc(-c2nc3ccccc3s2)cc1` [BTA-1, 2-(4-Methylaminophenyl)benzothiazole], the specific binding (Aβ(1-40) fibrils; 200 nM Aβ(1-40) fibrils) was about 70%, the “distribution of radioactivity in brain (PET)” value [4] was “uniform distribution of radioactivity throughout the brain” and the “staining of neurofibrillary tangles (NFT)” value ([5]; AD brain, FIG. 8, left) was “more faintly stained”. For the same compound, the “staining of amyloid plaques” value ([5]; postmortem AD brain tissue) was “clearly visible”, the “staining of amyloid plaques” value ([6]; 8 month old PS1/APP mouse brain tissue) was “clearly visible” and the “staining of cerebrovascular amyloid” value ([6]; FIG. 8, right) was “brightly stained”. For the same compound, the “in vivo labeling of plaques and cerebrovascular amyloid” value [7] was “plaques and cerebrovascular amyloid are clearly distinguishable”, the “binding in cerebellum and entorhinal cortex” value ([8]; Braak VI AD brain) was “low binding” and the “binding in frontal gray versus cerebellum and entorhinal cortex” value ([8]; Braak VI AD brain) was “over ten-fold higher levels”. For the same compound, the “binding in NFT-rich entorhinal cortex versus cerebellum and frontal gray” value ([8]; Braak stage II control brain (Cntl 04)) was “no greater than”.

Compound `CN(C)c1ccc(-c2nc3ccccc3s2)cc1` [BTA-2, 2-(4-dimethylaminophenyl)benzothiazole] has a Ki (Aβ(1-40) fibrils; [11]) of 3 ± 0.8 nM.

With `c1ccc(-c2nc3ccccc3s2)cc1` [BTP, 2-phenylbenzothiazole, reference compound] the “staining … in AD brain” value [3] was “does not appear to stain plaques”.

For `Cc1ccc2c(c1)sc(-c1ccc(N(C)C)cc1)[n+]2C.[Cl-]` [ThT, Thioflavin T, reference compound], the “staining … in AD brain” value [3] was “weakly stains plaques”, the “competition with [3H]CG for binding sites on Aβ(1-40)” value (synthetic Aβ(1-40)) was “lack of competition; also recorded: did not” and the “log of the partition coefficient, logPoct” value ([2]; octanol / phosphate-buffered saline) was 0.57.

In the case of Thioflavin S [ThS], the “competition with [3H]CG for binding sites on Aβ(1-40)” value (synthetic Aβ(1-40)) is reported as “competed”.
